Assay [1] has as its target T1, Tyrosinekinase of the EGF (Epidermal Growth Factor) Receptor (Homo sapiens, UniProt P00533).
T1 construct: Membranes of A431 cells (ATCC CRL 1555) are used as the source of EGF receptors; endogenous in cells; host or cells: A431 cell membranes (ATCC CRL 1555)
Put plainly: Inhibition of tyrosinekinase of the EGF receptor (A431 cell membranes). The class given is biochemical. As to conditions: membranes of A431 cells; samples containing poly(Glu, Ala, Tyr 6:3:1) substrate and EGF; 15 minutes at 30° C.; read-out: IC50, concentration of substance which inhibits the enzyme activity by 50% (converted). Here is the method:
1 - Measurement of the Inhibition of Tyrosinekinase of the EGF (Epidermal Growth Factor) Receptor
Membranes of A431 cells (ATCC CRL 1555) are used as the source of EGF receptors. This cellular lineage expresses a large number of EGF receptors at its surface which have a tyrosinekinase activity.
These cells are pre-incubated with or without EGF (1000 nM) for 15 minutes and are added to a corresponding HEPES buffer (N-2-hydroxyethyl-piperazine-N'-2-ethanesulphonic acid) (with or without EGP) and containing Mg^2+ (10 mM) and Mn^2+ (2 mM) ions, 0.2% of X-100 triton, sodium orthovanadate (20 micromoles) and the inhibitor.
Samples either containing or not containing the poly substrate (Glu, Ala, Tyr 6:3:1) are prepared. The reaction is initiated by the addition of [gamma P^32 ] ATP (32 micromoles). After incubation for 15 minutes at 30° C. the samples are precipitated using 10% […], followed by filtering on a millipore membrane and the incorporated P^32 is measured with a liquid scintillation counter.
The results are expressed in IC50, that is the concentration of substance which inhibits the enzyme activity by 50%, determined by a series of dilutions starting at 51 micrograms/ml in the samples containing the substrate and EGF.

Assay [2] has as its system catalytic sub-unit of the proteinkinase dependent on cyclic 3',5'-AMP. As to the kind of experiment: Inhibition of the proteinkinase dependent on cyclic 3',5'-AMP. The class given is biochemical. As to conditions: inhibitor 40 micrograms/ml; KEMPTID substrate; pH 6.9; 15 minutes at 30° C. As for the experimental part: 2 - Measurement of the Inhibition of the Proteinkinase Dependent on Cyclic 3',5'-AMP
The catalytic sub-unit of the proteinkinase dependent on cyclic 3',5'-AMP was reconstituted as indicated in SIGMA®. The enzyme activity was measured using KEMPTID® (SIGMA®) as substrate (KEMPTID - Leu-Arg-Arg-Ala-Ser-Leu-Gly).
The inhibitor is pre-incubated at pH 6.9 with the enzyme, the substrate (190 micromoles), Mg^+2 (5 mM), 0.25 mg/ml of BSA (Bovine Serum Albumin) and 3.75 mM of mercaptoethanol in 50 mM of 4-morpholinopropanesulphonic acid.
The reaction is initiated using gamma P^32 ATP (40 micromoles). After 15 minutes at 30° C. an aliquot is placed on an ion-exchange paper ([…]; WHATMAN®) plunged into phosphoric acid (75 mM), washed, dried and the incorporation of P^32 is measured using a liquid scintillation counter.
The results are expressed as a percentage of the enzyme activity inhibition at a concentration of inhibitor of 40 micrograms/ml.

T1 sequence (P00533 25-1210): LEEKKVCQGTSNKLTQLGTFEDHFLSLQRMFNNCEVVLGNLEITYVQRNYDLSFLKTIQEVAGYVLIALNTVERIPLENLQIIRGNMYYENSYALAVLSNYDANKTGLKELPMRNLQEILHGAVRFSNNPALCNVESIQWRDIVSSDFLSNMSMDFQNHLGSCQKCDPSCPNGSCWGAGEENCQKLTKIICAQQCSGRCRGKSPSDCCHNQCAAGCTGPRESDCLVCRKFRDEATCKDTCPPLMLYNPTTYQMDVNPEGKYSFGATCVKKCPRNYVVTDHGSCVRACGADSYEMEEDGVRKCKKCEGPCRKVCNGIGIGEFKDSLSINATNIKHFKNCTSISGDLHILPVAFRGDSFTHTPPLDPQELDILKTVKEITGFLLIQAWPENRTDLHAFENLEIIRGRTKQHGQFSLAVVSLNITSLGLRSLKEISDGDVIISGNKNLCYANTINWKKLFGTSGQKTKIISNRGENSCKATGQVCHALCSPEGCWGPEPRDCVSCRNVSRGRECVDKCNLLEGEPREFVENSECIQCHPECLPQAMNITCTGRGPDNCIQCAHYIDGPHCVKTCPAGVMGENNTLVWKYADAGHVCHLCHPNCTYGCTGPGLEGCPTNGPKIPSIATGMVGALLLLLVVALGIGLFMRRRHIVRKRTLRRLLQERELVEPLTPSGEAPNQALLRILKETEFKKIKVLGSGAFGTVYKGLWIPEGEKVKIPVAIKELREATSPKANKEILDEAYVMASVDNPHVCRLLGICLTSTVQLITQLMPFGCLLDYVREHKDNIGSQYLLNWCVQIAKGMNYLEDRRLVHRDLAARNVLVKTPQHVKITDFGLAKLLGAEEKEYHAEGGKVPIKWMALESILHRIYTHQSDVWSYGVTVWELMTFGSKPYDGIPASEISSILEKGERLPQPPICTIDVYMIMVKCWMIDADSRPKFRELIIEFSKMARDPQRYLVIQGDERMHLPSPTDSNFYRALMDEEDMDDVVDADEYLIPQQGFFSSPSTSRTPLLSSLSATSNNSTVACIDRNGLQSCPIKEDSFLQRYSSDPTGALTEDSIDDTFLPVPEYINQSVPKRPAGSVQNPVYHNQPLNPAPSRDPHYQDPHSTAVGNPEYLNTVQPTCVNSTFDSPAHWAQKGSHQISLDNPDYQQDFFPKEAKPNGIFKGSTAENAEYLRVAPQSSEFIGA
T1 sequence (P01133 971-1023 partner limits assumed): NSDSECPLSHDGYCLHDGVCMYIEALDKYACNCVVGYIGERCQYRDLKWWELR

For `CN(C)C1Cc2ccc(O)c(O)c2-c2ccccc21` (stereo not shown) [Product A, 3,4-dihydroxy-9-dimethylamino-9,10-dihydrophenanthrene], in assay [1], the IC50 is 2.35 µM. The “percentage of the enzyme activity inhibition” value in assay [2] is 19%.

On to `Br.CNC1Cc2ccc(O)c(O)c2-c2ccccc21` (stereo not shown) [Example 3, 3,4-dihydroxy-9-methylamino-9,10-dihydrophenanthrene (hydrobromide)], for which the IC50 in assay [1] is 0.621 µM. In addition, in assay [2], the “percentage of the enzyme activity inhibition” value is 18%.

These data come from patent US5189065A, “Use of derivatives of 9,10-dihydrophenanthrene for the preparation of an anti-tumor medicament” (Roussel Uclaf, priority 1989, dated 1993).
